# Measurements from ChEMBL document CHEMBL1132978, “Artificial neural network applied to prediction of fluorquinolone antibacterial activity by topological methods” (2000).
# Tested on: Escherichia coli
# Test: Minimum inhibitory concentration against Escherichia coli
# Assay type: functional
row,Compound,MIC [µg/mL]
1,NCC1CCCN(c2c(F)cc3c(=O)c(C(=O)O)cn(C4CC4)c3c2F)C1 (stereo unspecified),0.05
2,CCNCC1CCN(c2nc3c(cc2F)c(=O)c(C(=O)O)cn3-c2ccc(F)cc2F)C1 (stereo unspecified),0.2
3,CCNCC1CCN(c2cc3c(c(N)c2F)c(=O)c(C(=O)O)cn3C2CC2)C1 (stereo unspecified),0.1
4,CCN1CCN(c2cc3c(cc2F)c(=O)c(C(=O)O)cn3C(C)C)CC1,1.6
5,COc1c(N2CCN(C)CC2)c(F)cc2c(=O)c(C(=O)O)cn(C3CC3)c12,0.1
6,NCC1CCCN(c2c(F)cc3c(=O)c(C(=O)O)cn(C4CC4)c3c2Cl)C1 (stereo unspecified),0.1
7,CC1CN(c2cc3c(cc2F)c(=O)c(C(=O)O)cn3-c2ccc(F)cc2F)CC(C)N1 (stereo unspecified),0.4
8,COc1c(N2CCCC(CN)C2)c(F)cc2c(=O)c(C(=O)O)cn(C3CC3)c12 (stereo unspecified),0.2
9,COc1c(N2CCCC(N)C2)c(F)cc2c(=O)c(C(=O)O)cn(C3CC3)c12 (stereo unspecified),0.1
10,CCn1cc(C(=O)O)c(=O)c2cc(F)c(N3CCC(CNC)C3)cc21 (stereo unspecified),3.1
11,COc1c(N2CC(C)NC(C)C2)c(F)c(N)c2c(=O)c(C(=O)O)cn(C3CC3)c12 (stereo unspecified),0.2
12,CCOc1c(N2CCC(C)(CN)C2)c(F)c(N)c2c(=O)c(C(=O)O)cn(C3CC3)c12 (stereo unspecified),0.2
13,NCC1CCN(c2cc3c(cc2F)c(=O)c(C(=O)O)cn3C2CC2)C1 (stereo unspecified),0.05
14,NCC1CCN(c2nc3c(cc2F)c(=O)c(C(=O)O)cn3C2CC2)C1 (stereo unspecified),0.05
15,CNCC1CCN(c2cc3c(cc2F)c(=O)c(C(=O)O)cn3-c2ccc(F)cc2F)C1 (stereo unspecified),0.2
16,CCOc1c(N2CCCC(N)C2)c(F)c(N)c2c(=O)c(C(=O)O)cn(C3CC3)c12 (stereo unspecified),0.2
17,CNCC1CCN(c2nc3c(cc2F)c(=O)c(C(=O)O)cn3C2CC2)C1 (stereo unspecified),0.1
18,CC(C)n1cc(C(=O)O)c(=O)c2cc(F)c(N3CCNCC3)cc21,0.8
19,CNCC1CCN(c2cc3c(cc2F)c(=O)c(C(=O)O)cn3C2CCC2)C1 (stereo unspecified),0.8
20,CC(C)CN1CCN(c2cc3c(cc2F)c(=O)c(C(=O)O)cn3-c2ccc(F)cc2F)CC1,3.1
21,NCC1CCCN(c2c(F)c(N)c3c(=O)c(C(=O)O)cn(C4CC4)c3c2F)C1 (stereo unspecified),0.05
22,COc1c(N2CCC(N)C2)c(F)c(N)c2c(=O)c(C(=O)O)cn(C3CC3)c12 (stereo unspecified),0.025
23,CNC(C)C1CCN(c2cc3c(c(N)c2F)c(=O)c(C(=O)O)cn3C2CC2)C1 (stereo unspecified),0.1

row,Compound,MIC [µg/mL]
1,NCC1CCN(c2c(F)cc3c(=O)c(C(=O)O)cn(C4CC4)c3c2F)C1 (stereo unspecified),0.025
2,NC1CCN(c2nc3c(cc2F)c(=O)c(C(=O)O)cn3C2CC2)C1 (stereo unspecified),0.013
3,CNCC1CCN(c2cc3c(cc2F)c(=O)c(C(=O)O)cn3C(C)(C)C)C1 (stereo unspecified),0.4
4,CC1(CN)CCN(c2cc3c(cc2F)c(=O)c(C(=O)O)cn3C2CC2)C1 (stereo unspecified),0.1
5,CNCC1CCN(c2cc3c(cc2F)c(=O)c(C(=O)O)cn3C2CC2)C1 (stereo unspecified),0.2
6,CCn1cc(C(=O)O)c(=O)c2cc(F)c(N3CCNC(C)C3)cc21 (stereo unspecified),0.2
7,CCNCC1CCN(c2cc3c(cc2F)c(=O)c(C(=O)O)cn3-c2ccc(F)cc2F)C1 (stereo unspecified),0.4
8,CCNC(C)C1CCN(c2cc3c(c(N)c2F)c(=O)c(C(=O)O)cn3C2CC2)C1 (stereo unspecified),0.1
9,CCC1CN(c2cc3c(cc2F)c(=O)c(C(=O)O)cn3-c2ccc(F)cc2F)CCN1 (stereo unspecified),0.4
10,COc1c(N2CCC(N)CC2)c(F)c(N)c2c(=O)c(C(=O)O)cn(C3CC3)c12,0.1
11,CN(C)CC1CCN(c2cc3c(cc2F)c(=O)c(C(=O)O)cn3C2CC2)C1 (stereo unspecified),0.2
12,CN1CCN(c2cc3c(cc2F)c(=O)c(C(=O)O)cn3C2CC2)CC1,0.05
13,CC1CN(c2cc3c(cc2F)c(=O)c(C(=O)O)cn3C2CCC2)CC(C)N1 (stereo unspecified),0.4
14,COc1c(N2CCC(C)(CN)C2)c(F)c(N)c2c(=O)c(C(=O)O)cn(C3CC3)c12 (stereo unspecified),0.1
15,Nc1c(F)c(N2CCC(N)C2)c(F)c2c1c(=O)c(C(=O)O)cn2C1CC1 (stereo unspecified),0.006
16,COc1c(N2CCC(CN)C2)c(F)cc2c(=O)c(C(=O)O)cn(C3CC3)c12 (stereo unspecified),0.05
17,NC1CCN(c2c(F)cc3c(=O)c(C(=O)O)cn(C4CC4)c3c2Cl)C1 (stereo unspecified) [CLINAFLOXACIN],0.013
18,CCN1CCN(c2cc3c(cc2F)c(=O)c(C(=O)O)cn3CC)CC1,0.1
19,CC1CN(c2cc3c(cc2F)c(=O)c(C(=O)O)cn3C(C)C)CC(C)N1 (stereo unspecified),1.6
20,CC1CN(c2cc3c(cc2F)c(=O)c(C(=O)O)cn3C2CC2)CCN1 (stereo unspecified),0.05
21,COc1c(N2CC(C)NC(C)C2)c(F)cc2c(=O)c(C(=O)O)cn(C3CC3)c12 (stereo unspecified),0.1
22,CC(N)C1CCN(c2c(F)cc3c(=O)c(C(=O)O)cn(C4CC4)c3c2F)C1 (stereo unspecified),0.013
23,O=C(O)c1cn(C2CCC2)c2cc(N3CCNCC3)c(F)cc2c1=O,0.4

row,Compound,MIC [µg/mL]
1,NC1CCN(c2cc3c(cc2F)c(=O)c(C(=O)O)cn3C2CC2)C1 (stereo unspecified),0.05
2,CCNCC1CCN(c2cc3c(cc2F)c(=O)c(C(=O)O)cn3C2CC2)C1 (stereo unspecified),0.1
3,COc1c(N2CCNCC2)c(F)cc2c(=O)c(C(=O)O)cn(C3CC3)c12,0.05
4,NCC1CCN(c2c(F)c(N)c3c(=O)c(C(=O)O)cn(C4CC4)c3c2F)C1 (stereo unspecified),0.013
5,NC1CCN(c2c(F)cc3c(=O)c(C(=O)O)cn(C4CC4)c3c2F)C1 (stereo unspecified),0.013
6,CC(C)n1cc(C(=O)O)c(=O)c2cc(F)c(N3CCC(N)C3)cc21 (stereo unspecified),0.8
7,NC1CCN(c2nc3c(cc2F)c(=O)c(C(=O)O)cn3-c2ccc(F)cc2F)C1 (stereo unspecified) [TOSUFLOXACIN],0.025
8,CC1CN(c2cc3c(cc2F)c(=O)c(C(=O)O)cn3-c2ccc(F)cc2F)CCN1 (stereo unspecified) [TEMAFLOXACIN],0.1
9,NC1CCN(c2c(F)cc3c(=O)c(C(=O)O)cn(C4CC4)c3c2C(F)(F)F)C1 (stereo unspecified),0.1
10,CCNCC1CCN(c2c(F)cc3c(=O)c(C(=O)O)cn(C4CC4)c3c2F)C1 (stereo unspecified) [PD-117558],0.05
11,CCOc1c(N2CCC(C)C2)c(F)cc2c(=O)c(C(=O)O)cn(C3CC3)c12 (stereo unspecified),0.05
12,CCNCC1CCN(c2c(F)cc3c(=O)c(C(=O)O)cn(CC)c3c2F)C1 (stereo unspecified) [MERAFLOXACIN],0.1
13,CC1(CN)CCN(c2nc3c(cc2F)c(=O)c(C(=O)O)cn3C2CC2)C1 (stereo unspecified),0.2
14,COc1c(N2CCCC(N)C2)c(F)c(N)c2c(=O)c(C(=O)O)cn(C3CC3)c12 (stereo unspecified),0.1
15,CCOc1c(N2CCCC(CN)C2)c(F)cc2c(=O)c(C(=O)O)cn(C3CC3)c12 (stereo unspecified),0.2
16,O=C(O)c1cn(-c2ccc(F)cc2F)c2cc(N3CCNCC3)c(F)cc2c1=O,0.1
17,Nc1c(F)c(N2CCC(N)C2)cc2c1c(=O)c(C(=O)O)cn2C1CC1 (stereo unspecified),0.013
18,COc1c(N2CCNC(C)C2)c(F)cc2c(=O)c(C(=O)O)cn(C3CC3)c12 (stereo unspecified) [GATIFLOXACIN],0.05
19,CC1CN(c2cc3c(cc2F)c(=O)c(C(=O)O)cn3C(C)(C)C)CC(C)N1 (stereo unspecified),0.2
20,CCN1CCN(c2cc3c(cc2F)c(=O)c(C(=O)O)cn3C(C)(C)C)CC1,0.2
21,CCNCC1CCN(c2c(F)cc3c(=O)c(C(=O)O)cn(C4CC4)c3c2C(F)(F)F)C1 (stereo unspecified),0.4
22,CCOc1c(N2CCNC(C)C2)c(F)cc2c(=O)c(C(=O)O)cn(C3CC3)c12 (stereo unspecified),0.1
23,CCOc1c(N2CCC(C)(CN)C2)c(F)cc2c(=O)c(C(=O)O)cn(C3CC3)c12 (stereo unspecified),0.2

row,Compound,MIC [µg/mL]
1,CCNCC1CCN(c2c(F)c(N)c3c(=O)c(C(=O)O)cn(C4CC4)c3c2F)C1 (stereo unspecified),0.05
2,CN1CCN(c2cc3c(cc2F)c(=O)c(C(=O)O)cn3-c2ccc(F)cc2F)CC1,0.2
3,CCn1cc(C(=O)O)c(=O)c2cc(F)c(N3CCC(N)C3)cc21 (stereo unspecified),0.4
4,NC1CCN(c2cc3c(cc2F)c(=O)c(C(=O)O)cn3C2CCC2)C1 (stereo unspecified),0.4
5,CC1(CN)CCN(c2c(F)c(N)c3c(=O)c(C(=O)O)cn(C4CC4)c3c2F)C1 (stereo unspecified),0.2
6,CC1CN(c2cc3c(cc2F)c(=O)c(C(=O)O)cn3C(C)(C)C)CCN1 (stereo unspecified),0.1
7,CCCCN1CCN(c2cc3c(cc2F)c(=O)c(C(=O)O)cn3-c2ccc(F)cc2F)CC1,0.8
8,COc1c(N2CCC(N)C2)c(F)cc2c(=O)c(C(=O)O)cn(C3CC3)c12 (stereo unspecified),0.025
9,CC(C)N1CCN(c2cc3c(cc2F)c(=O)c(C(=O)O)cn3C2CC2)CC1,0.1
10,CCn1cc(C(=O)O)c(=O)c2cc(F)c(N3CCC(N)C3)c(F)c21 (stereo unspecified),0.05
11,CC(N)C1CCN(c2cc3c(c(N)c2F)c(=O)c(C(=O)O)cn3C2CC2)C1 (stereo unspecified),0.025
12,CC1CN(c2cc3c(cc2F)c(=O)c(C(=O)O)cn3C(C)C)CCN1 (stereo unspecified),0.8
13,CCN1CCN(c2cc3c(cc2F)c(=O)c(C(=O)O)cn3C2CCC2)CC1,0.8
14,CCN1CCN(c2cc3c(cc2F)c(=O)c(C(=O)O)cn3-c2ccc(F)cc2F)CC1,0.4
15,CC1CN(c2cc3c(cc2F)c(=O)c(C(=O)O)cn3C2CCC2)CCN1 (stereo unspecified),0.4
16,CCNCC1CCN(c2c(F)cc3c(=O)c(C(=O)O)cn(C4CC4)c3c2OC)C1 (stereo unspecified),0.1
17,CC(C)CN1CCN(c2cc3c(cc2F)c(=O)c(C(=O)O)cn3C2CC2)CC1,0.2
18,CCNCC1CCN(c2nc3c(cc2F)c(=O)c(C(=O)O)cn3C2CC2)C1 (stereo unspecified),0.1
19,CCn1cc(C(=O)O)c(=O)c2cc(F)c(N3CCC(N)C3)c(OC)c21 (stereo unspecified),0.2
20,NCC1CCCN(c2c(F)cc3c(=O)c(C(=O)O)cn(C4CC4)c3c2N)C1 (stereo unspecified),0.4
21,CCn1cc(C(=O)O)c(=O)c2cc(F)c(N3CCNCC3)cc21 [NORFLOXACIN],0.1
22,CC1CN(c2cc3c(cc2F)c(=O)c(C(=O)O)cn3C2CC2)CC(C)N1 (stereo unspecified),0.05
